Assay results reported in ChEMBL document CHEMBL1201862, “PubChem BioAssay data set” (2004).
Activity calls are given as the source filed them.

What was measured:
[1] = A cytotoxicity screen of small molecule inhibitors of the PhoP region in Salmonella typhi identified in the primary screen. [Related pubchem assays: 1850, 1864, 1985 ]; format: functional
Aspartyl aminopeptidase = molecular target: T1, Aspartyl aminopeptidase (Plasmodium falciparum 3D7, UniProt Q8I2J3)
T1 sequence (Q8I2J3 whole entry): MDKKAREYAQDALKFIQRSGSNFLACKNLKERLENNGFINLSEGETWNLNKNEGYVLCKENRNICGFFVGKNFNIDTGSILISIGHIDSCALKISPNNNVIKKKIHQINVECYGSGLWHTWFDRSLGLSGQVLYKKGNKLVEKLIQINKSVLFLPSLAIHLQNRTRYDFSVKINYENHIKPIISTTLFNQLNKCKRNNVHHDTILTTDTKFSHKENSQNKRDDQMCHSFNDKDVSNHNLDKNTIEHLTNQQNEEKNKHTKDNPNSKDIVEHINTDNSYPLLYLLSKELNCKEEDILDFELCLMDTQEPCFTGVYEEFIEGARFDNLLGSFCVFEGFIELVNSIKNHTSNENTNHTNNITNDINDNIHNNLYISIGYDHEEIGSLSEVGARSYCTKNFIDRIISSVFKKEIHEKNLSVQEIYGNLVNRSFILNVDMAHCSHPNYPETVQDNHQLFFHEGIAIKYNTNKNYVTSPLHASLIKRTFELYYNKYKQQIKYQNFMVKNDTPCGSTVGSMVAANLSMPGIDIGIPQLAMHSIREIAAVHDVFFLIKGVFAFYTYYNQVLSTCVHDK

Procathepsin L = Procathepsin L (Homo sapiens, UniProt P07711)
[2] = Luminescence Cell-Based Dose Response HTS to Identify Activators of Luciferase Translation or Activity in H4 […] Cells. [Related pubchem assays: 1829 (Project Summary), 1814 (Primary HTS)]; format: functional
H4 = assay: Luminescence Cell-Based Dose Response HTS to Identify Activators of 5'UTR Stem-Loop Driven Prion Protein mRNA Translation in H4 Neuroglioblastoma Cells. [Related pubchem assays: 1829 (Project Summary), 1814 (Primary HTS)]; format: functional; details: Homo sapiens
[3] = molecular target: T2, Short transient receptor potential channel 4 (Mus musculus, UniProt Q9QUQ5); assay: mouse TRPC4 channel inhibitors, dose response, cell-based, HEK293 TRPC4/mu-opioid, Fluo-4 calcium (AID 434942); format: functional;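 also: potency of inhibitors blocking the TRPC4 calcium response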
T2 sequence (Q9QUQ5 whole entry): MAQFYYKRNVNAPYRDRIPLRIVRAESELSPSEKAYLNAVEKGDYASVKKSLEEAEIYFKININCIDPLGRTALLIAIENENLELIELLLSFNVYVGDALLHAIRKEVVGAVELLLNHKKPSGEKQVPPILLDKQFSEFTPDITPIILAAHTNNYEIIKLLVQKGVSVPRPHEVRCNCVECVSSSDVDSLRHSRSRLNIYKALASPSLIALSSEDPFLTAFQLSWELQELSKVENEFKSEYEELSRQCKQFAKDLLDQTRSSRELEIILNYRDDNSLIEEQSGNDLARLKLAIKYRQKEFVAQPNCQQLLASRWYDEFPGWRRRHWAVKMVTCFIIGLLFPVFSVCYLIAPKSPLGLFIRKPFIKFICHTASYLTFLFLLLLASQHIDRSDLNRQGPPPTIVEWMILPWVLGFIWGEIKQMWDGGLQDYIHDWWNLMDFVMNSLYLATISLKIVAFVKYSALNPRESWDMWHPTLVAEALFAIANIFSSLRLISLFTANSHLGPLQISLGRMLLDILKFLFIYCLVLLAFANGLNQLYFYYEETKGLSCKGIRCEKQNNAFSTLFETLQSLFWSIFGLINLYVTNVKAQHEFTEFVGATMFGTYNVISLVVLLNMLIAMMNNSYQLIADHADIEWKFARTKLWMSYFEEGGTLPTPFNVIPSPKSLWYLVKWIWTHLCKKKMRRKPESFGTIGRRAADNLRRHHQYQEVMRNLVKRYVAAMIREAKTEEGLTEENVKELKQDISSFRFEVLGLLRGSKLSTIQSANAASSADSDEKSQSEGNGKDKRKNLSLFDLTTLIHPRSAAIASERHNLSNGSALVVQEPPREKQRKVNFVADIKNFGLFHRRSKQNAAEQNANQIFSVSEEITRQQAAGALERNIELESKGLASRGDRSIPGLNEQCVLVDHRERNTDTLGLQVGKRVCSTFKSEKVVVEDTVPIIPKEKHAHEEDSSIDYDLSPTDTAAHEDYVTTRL

[4] = molecular target: Dual specificity tyrosine-phosphorylation-regulated kinase 1A (Rattus norvegicus, UniProt Q63470); format: biochemical, Homo sapiens
Estrogen receptor = molecular target: T3, Estrogen receptor (Homo sapiens, UniProt P03372);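 also: potency for inhibiting coactivator peptide recruitment to the receptor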
T3 sequence (P03372 whole entry): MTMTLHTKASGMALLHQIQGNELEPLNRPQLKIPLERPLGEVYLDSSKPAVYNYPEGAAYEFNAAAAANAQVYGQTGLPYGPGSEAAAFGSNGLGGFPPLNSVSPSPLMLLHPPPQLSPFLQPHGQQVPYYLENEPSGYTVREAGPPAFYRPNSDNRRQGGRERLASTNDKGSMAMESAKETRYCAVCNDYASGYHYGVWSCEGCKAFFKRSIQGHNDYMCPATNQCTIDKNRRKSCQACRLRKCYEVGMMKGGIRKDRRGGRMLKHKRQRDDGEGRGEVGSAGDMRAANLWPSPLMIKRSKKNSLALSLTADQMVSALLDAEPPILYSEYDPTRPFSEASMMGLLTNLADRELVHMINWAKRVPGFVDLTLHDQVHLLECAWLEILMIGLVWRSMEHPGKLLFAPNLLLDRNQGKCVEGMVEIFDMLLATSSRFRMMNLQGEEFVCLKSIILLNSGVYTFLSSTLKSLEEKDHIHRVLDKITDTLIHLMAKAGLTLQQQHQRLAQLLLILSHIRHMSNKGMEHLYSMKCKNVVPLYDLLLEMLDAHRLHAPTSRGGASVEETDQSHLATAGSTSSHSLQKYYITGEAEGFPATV

[5] = inhibitors of HIV Env-driven cell fusion, dose response, cherry-pick (AID 652057); format: functional, cell-based
[6] = ZM109 Env clade C HIV-1 fusion inhibitors, dose response, HeLa effector, CEM target cells, luciferase, cherry-pick (AID 652058); format: functional, cell-based
[7] = inhibitors of clade B AD8 Env fusion, dose response, cell-based, cherry-pick (AID 652062); format: functional;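 also: luciferase signal from cell-cell fusion driven by HIV-1 clade B AD8 Env; potency is for inhibitors of fusion seen as a drop in luminescence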
Leucine aminopeptidase = molecular target: T4, Leucine aminopeptidase (Plasmodium falciparum 3D7, UniProt Q8IL11); assay: P. falciparum M17LAP inhibitors, primary screen, biochemical, fluorogenic H-Leu-NHMec substrate, 1536-well (AID 1619); format: functional
T4 sequence (Q8IL11 whole entry): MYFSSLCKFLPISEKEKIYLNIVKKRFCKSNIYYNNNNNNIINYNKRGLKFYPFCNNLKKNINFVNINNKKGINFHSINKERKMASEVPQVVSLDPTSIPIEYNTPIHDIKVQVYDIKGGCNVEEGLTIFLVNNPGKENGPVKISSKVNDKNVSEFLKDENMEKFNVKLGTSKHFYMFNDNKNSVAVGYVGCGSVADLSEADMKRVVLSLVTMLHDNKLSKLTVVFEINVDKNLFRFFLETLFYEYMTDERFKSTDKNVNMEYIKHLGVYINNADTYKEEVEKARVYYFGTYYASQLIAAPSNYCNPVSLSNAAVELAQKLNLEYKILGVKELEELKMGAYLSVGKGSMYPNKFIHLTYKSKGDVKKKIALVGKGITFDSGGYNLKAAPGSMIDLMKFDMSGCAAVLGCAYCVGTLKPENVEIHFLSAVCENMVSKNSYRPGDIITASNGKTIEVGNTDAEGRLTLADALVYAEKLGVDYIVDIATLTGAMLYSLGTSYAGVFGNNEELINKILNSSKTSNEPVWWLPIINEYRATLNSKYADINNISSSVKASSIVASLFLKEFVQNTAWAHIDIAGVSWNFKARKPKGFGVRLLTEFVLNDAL

[8] = M. tuberculosis H37Rv growth inhibitors, H37Rv strain (AID 1626); format: functional
[9] = molecular target: Eukaryotic translation initiation factor 4E (Mus musculus, UniProt P63073); assay: eIF4E–eIF4G protein interaction inhibitors, dose response, biochemical, TR-FRET (AID 855); format: functional;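 also: potency for disrupting eIF4E binding to eIF4GI seen as loss of FRET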
[10] = molecular target: T5, Voltage-gated N-type calcium channel alpha-1B subunit/Amyloid beta A4 precursor protein-binding family A member 1 (Homo sapiens, UniProt Q00975+Q02410); assay: disruptors of Mint-PDZ/N-type channel peptide interaction – biochemical, HTRF, set 2, SAR follow-up (AID 434980); format: functional
[11] = molecular target: T5, Voltage-gated N-type calcium channel alpha-1B subunit/Amyloid beta A4 precursor protein-binding family A member 1; assay: disruptors of Mint-PDZ/N-type channel peptide interaction – biochemical, HTRF, SAR follow-up (AID 2489); format: functional
Large T antigen = Large T antigen (Simian virus 40, UniProt P03070); format: functional, Betapolyomavirus macacae;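 also: Confirmatory-stage PubChem screen for compounds that inhibit SV40 T antigen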
[12] = inhibitors of firefly luciferase expression or activity, dose response, H4 neuroglioma cells, luminescence (AID 1990); format: functional, cell-based
[13] = Luminescence Cell-Based Dose Response HTS to Identify Inhibitors of 5'UTR Stem-Loop Driven Prion Protein mRNA Translation in H4 Neuroglioblastoma Cells. [Related pubchem assays: 1827 (Project Summary), 1813 (Primary HTS)]; format: functional
[14] = inhibitors of SNCA 5'UTR-driven reporter translation, confirmation, H4 neuroglioma cells, luminescence (AID 1988); format: functional, cell-based
[15] = cytotoxicity in HPDE-C7 cells, cell-based, fluorescence, HTS (AID 430); format: functional; details: Homo sapiens
[16] = cytotoxicity in KRAS-transformed pancreatic duct cells, primary screen, cell-based, fluorescence, HTS (AID 431); format: functional; details: Homo sapiens;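 also: cell line used: HPDE-C7K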
[17] = growth suppression of PTEN-null colon cells, dose response, cell-based, HCT116 PTEN knockout (AID 1047); format: functional;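 also: HCT116 colon tumor cells with PTEN knocked out; cells exposed to compound for 60 hours before readout; potency for loss of cell viability measured by luminescence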
[18] = growth suppression of beta-catenin-knockout colon cells, dose response, cell-based, HCT116, human colon tumor (AID 1045); format: functional;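 also: HCT116 colon tumor cells with beta catenin knocked out; cells exposed to compound for 60 hours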
[19] = molecular target: T6, Ubiquitin-conjugating enzyme E2 N (Homo sapiens, UniProt P61088); format: functional;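 also: Dose-response confirmation in a TR-FRET assay detecting UBC13-driven polyubiquitin chain formation, inhibition measured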
T6 sequence (P61088 whole entry): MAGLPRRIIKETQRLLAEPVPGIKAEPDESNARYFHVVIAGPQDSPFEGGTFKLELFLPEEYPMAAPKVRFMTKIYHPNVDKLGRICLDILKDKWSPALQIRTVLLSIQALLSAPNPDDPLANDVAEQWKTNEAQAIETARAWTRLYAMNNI

Cytochrome P450 2C19 = Cytochrome P450 2C19 (Homo sapiens, UniProt P33261); assay: Cytochrome panel assay with activity outcomes. Panel member name: p450-cyp2c19 Compounds with AC50 equal or less than 10 uM are considered active; format: functional; details: read-out: AC50
[20] = Shn3 3'UTR reporter inhibitors, dose response, cell-based, Clone20 osteoblasts, firefly luciferase, cherry-picked (AID 624132); format: functional;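 also: firefly luciferase luminescence from reporter carrying the Shn3 3'UTR in osteoblasts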
[21] = HepG2 cell cytotoxicity, dose response, cytotoxicity control for Shn3 inhibitor project, CellTiter-Glo, cherry-picked (AID 624134); format: functional, cell-based
[22] = control 3'UTR Renilla luciferase suppression, dose response, counter-screen for Shn3 inhibitor project, cell-based, Clone20-Shn3RL, cherry-picked (AID 624133); format: functional
Cytochrome P450 2D6 = Cytochrome P450 2D6 (Homo sapiens, UniProt P10635);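 also: CYP2D6 member of a cytochrome P450 panel assay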
Cytochrome P450 3A4 = Cytochrome P450 3A4 (Homo sapiens, UniProt P08684);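 also: CYP3A4 tested as one member of a cytochrome P450 panel screen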
Cytochrome P450 2C9 = Cytochrome P450 2C9 (Homo sapiens, UniProt P11712)

Procathepsin L, sequence (P07711 whole entry): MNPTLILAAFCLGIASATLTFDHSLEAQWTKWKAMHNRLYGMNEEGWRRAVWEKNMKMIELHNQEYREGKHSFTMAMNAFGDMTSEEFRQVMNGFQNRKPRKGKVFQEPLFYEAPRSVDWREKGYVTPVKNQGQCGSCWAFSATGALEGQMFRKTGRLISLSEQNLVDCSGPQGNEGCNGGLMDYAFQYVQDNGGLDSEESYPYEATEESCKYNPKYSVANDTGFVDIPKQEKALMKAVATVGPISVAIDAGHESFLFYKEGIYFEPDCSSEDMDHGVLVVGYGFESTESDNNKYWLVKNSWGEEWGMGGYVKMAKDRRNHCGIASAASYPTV
T5 sequence (Q00975 whole entry): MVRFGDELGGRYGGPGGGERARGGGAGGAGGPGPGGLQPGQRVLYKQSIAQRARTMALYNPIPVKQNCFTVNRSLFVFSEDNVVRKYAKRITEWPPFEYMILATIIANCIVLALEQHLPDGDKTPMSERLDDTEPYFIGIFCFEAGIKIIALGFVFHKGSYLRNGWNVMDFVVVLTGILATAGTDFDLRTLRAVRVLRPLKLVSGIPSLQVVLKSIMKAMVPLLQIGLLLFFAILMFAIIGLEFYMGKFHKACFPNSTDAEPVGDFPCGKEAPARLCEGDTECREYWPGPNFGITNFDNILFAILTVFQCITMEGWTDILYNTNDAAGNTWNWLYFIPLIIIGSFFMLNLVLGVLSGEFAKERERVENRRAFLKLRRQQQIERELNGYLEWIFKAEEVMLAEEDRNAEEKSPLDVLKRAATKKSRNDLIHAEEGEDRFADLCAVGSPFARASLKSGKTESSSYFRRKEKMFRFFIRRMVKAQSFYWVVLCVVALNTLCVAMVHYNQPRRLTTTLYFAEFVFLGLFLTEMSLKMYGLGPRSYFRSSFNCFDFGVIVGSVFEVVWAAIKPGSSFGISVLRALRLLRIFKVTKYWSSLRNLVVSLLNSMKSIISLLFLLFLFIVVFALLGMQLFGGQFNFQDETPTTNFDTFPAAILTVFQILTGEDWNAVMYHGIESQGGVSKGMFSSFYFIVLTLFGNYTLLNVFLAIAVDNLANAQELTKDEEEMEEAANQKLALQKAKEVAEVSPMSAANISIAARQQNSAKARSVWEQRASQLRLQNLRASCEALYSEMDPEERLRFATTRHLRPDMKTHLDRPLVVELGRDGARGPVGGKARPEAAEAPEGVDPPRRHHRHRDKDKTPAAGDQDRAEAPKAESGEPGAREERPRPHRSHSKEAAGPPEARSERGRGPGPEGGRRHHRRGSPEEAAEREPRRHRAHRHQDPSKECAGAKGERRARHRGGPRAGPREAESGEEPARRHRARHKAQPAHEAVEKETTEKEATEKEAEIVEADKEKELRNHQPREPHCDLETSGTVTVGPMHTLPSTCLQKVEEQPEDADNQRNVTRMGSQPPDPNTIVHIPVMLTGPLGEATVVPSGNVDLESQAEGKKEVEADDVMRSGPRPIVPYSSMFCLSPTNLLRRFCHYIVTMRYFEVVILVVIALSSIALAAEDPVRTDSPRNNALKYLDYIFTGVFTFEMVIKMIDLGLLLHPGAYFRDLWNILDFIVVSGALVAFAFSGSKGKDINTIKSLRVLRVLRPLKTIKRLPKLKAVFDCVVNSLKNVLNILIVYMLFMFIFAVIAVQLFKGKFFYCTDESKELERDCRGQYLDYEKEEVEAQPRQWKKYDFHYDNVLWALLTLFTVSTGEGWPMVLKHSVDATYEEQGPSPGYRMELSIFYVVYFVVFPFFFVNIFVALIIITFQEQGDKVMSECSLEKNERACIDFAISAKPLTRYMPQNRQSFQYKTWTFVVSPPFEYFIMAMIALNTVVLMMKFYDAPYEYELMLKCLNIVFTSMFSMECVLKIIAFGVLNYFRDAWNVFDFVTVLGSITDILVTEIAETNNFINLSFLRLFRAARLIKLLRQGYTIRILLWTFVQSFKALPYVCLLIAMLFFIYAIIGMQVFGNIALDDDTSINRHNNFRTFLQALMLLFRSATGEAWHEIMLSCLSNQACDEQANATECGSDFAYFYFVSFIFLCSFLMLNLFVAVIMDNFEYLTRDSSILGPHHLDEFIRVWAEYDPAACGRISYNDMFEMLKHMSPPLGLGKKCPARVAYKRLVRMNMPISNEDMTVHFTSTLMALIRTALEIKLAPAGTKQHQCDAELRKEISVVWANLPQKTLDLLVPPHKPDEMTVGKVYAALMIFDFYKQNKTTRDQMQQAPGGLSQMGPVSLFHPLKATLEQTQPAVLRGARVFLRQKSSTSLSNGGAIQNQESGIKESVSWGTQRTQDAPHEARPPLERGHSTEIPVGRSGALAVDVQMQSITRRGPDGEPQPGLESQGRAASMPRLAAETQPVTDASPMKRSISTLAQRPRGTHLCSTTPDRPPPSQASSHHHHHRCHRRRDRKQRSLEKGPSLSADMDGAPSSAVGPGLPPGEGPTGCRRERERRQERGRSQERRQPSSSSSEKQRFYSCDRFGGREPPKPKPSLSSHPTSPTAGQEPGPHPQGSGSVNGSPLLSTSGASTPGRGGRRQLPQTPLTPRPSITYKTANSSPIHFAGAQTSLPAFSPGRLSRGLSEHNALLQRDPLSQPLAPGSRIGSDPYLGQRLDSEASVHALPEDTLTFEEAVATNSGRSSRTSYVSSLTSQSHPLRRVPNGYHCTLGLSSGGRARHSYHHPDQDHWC
T5 sequence (Q02410 whole entry): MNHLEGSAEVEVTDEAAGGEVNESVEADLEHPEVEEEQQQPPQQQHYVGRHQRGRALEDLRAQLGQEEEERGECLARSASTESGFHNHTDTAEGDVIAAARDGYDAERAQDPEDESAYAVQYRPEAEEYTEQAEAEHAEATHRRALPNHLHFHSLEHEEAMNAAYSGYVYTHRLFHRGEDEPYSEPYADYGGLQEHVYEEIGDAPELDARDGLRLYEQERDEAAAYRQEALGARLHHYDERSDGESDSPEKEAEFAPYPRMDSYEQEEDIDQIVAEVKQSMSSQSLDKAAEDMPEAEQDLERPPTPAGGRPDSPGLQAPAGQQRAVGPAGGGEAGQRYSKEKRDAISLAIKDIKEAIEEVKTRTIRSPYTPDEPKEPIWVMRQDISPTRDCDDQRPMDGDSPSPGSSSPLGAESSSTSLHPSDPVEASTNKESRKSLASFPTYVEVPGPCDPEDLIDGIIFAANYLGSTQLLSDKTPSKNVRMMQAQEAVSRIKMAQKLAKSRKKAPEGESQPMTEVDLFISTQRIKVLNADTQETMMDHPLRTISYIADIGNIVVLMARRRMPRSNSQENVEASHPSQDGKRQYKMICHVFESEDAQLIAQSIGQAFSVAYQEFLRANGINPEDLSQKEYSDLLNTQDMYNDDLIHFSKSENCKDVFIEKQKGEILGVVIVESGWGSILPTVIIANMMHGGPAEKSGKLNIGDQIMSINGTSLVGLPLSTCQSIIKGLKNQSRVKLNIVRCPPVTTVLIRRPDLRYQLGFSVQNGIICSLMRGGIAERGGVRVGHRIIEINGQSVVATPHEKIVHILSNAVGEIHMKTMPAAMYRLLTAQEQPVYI
Cytochrome P450 3A4, sequence (P08684 whole entry): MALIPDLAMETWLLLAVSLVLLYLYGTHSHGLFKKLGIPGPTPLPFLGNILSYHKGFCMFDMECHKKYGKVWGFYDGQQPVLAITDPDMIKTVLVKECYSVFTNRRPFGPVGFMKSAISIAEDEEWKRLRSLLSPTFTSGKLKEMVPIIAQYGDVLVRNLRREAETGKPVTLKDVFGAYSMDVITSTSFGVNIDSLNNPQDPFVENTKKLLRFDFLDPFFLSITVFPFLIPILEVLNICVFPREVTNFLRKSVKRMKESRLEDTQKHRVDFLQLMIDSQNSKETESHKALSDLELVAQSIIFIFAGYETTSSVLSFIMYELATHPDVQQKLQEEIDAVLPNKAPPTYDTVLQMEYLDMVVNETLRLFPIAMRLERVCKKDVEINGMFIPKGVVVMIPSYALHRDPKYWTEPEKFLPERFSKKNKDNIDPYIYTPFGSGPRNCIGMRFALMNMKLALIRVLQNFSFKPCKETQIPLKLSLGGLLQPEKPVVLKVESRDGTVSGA
Large T antigen, sequence (P03070 whole entry): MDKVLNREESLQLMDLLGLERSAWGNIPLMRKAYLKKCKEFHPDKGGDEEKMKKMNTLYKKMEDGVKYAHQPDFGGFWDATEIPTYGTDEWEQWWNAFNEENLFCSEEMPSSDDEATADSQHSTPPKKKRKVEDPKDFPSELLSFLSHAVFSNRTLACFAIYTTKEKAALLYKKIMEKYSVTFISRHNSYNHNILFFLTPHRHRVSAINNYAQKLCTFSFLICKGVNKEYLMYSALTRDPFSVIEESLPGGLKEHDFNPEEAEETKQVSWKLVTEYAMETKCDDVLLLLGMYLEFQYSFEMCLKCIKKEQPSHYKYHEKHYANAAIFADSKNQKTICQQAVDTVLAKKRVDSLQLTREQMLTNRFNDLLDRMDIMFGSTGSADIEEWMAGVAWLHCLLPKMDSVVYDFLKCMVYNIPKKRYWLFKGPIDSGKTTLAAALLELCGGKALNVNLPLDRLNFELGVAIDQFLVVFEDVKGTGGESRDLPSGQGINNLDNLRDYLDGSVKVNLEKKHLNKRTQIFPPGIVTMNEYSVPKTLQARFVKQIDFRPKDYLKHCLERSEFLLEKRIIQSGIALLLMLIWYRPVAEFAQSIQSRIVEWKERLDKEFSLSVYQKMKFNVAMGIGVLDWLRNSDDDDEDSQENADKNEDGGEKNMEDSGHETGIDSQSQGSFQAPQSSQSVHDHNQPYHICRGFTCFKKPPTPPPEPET
Eukaryotic translation initiation factor 4E, sequence (P63073 whole entry): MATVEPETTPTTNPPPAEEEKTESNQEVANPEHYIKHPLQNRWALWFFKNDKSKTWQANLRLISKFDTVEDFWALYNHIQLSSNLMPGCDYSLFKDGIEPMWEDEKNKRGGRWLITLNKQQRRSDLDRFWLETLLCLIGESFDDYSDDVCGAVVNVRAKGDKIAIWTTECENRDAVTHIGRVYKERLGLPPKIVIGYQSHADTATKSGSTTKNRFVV

## CCCCOc1ccc(-c2nnn(CC(=O)Nc3ncc(CC(=O)OCC)s3)n2)cc1
[1]
  EC50: > 50 µM (active)

## O=C(CSc1nnc(-c2ccccc2)o1)Nn1cnnc1
Aspartyl aminopeptidase
  IC50: 2.09 µM (active)
Procathepsin L
  IC50: > 59.6 µM (not active)

## Oc1ccc(-c2csc(-c3ccccc3)n2)cc1O
[2]
  EC50: > 120 µM (not active)
Aspartyl aminopeptidase
  IC50: 2.78 µM (active)
Procathepsin L
  IC50: > 59.6 µM (not active)
H4
  EC50: 6.54 µM (active)
[3]
  EC50: 4.73 µM (active)
[4]
  AC50: 6.72 µM (active)

## O=C(Nc1ccccc1Cl)Nn1cnnc1
Aspartyl aminopeptidase
  IC50: 1.47 µM (active)
Procathepsin L
  IC50: > 59.6 µM (not active)

## O=C(NCc1cccs1)C(=O)NCC(c1ccco1)N1CCN(c2ccc(F)cc2)CC1 (centres undefined)
[1]
  EC50: > 50 µM (active)

## O=S(=O)(NCCc1csc(-c2cccnc2)n1)c1ccc(Cl)s1
Estrogen receptor
  IC50: 19.2 µM (active)
[5]
  AC50: 42 µM (active)
[6]
  AC50: 7.17 µM (active)
[7]
  AC50: 12 µM (active)

## Cc1ccccc1Nc1nnc(SCC(=O)NC(=O)NCc2ccco2)s1
Leucine aminopeptidase
  IC50: 25.1 µM (active)
Estrogen receptor
  IC50: 17.3 µM (active)

## CCOC(=O)c1cnn(C(=O)c2ccccc2)c1N
[8]
  IC50: > 100 µM (active)
[9]
  IC50: > 64 µM (inactive)

## CC12C=CC(C)(O1)C1C(=O)N(c3ccc(F)cc3)C(=O)C12 (centres undefined)
[10]
  IC50: 8.89 µM (active)
[11]
  IC50: 10.7 µM (active)

## COc1ccc(/N=C/c2c[nH]nc2O)cc1
[8]
  IC50: > 100 µM (active)
Large T antigen
  IC50: 17.9 µM (active)

## COc1ccc(CCN2CCC(Nc3nc4ccccc4n3Cc3ccc(F)cc3)CC2)cc1 [ASTEMIZOLE]
[12]
  EC50: > 60 µM (not active)
[13]
  EC50: 9.34 µM (active)
[14]
  EC50: 7.94 µM (active)
[15]
  EC50: 12.4 µM (active)
[16]
  EC50: 13.6 µM (active)
[17]
  EC50: 5.87 µM (active)
[18]
  EC50: 3.78 µM (active)
[19]
  IC50: > 20 µM (inactive)
Cytochrome P450 2C19
  AC50: 7.94 µM (inconclusive)
[20]
  AC50: 3.03 µM (active)
[21]
  AC50: 12.6 µM (active)
[22]
  AC50: 19.7 µM (active)
Cytochrome P450 2D6
  AC50: 7.94 µM (active)
Cytochrome P450 3A4
  AC50: inactive
Cytochrome P450 2C9
  AC50: inactive
